What all share (assay type): biochemical
The target of one test is T1, CDK2/CycE (Homo sapiens, UniProt P24941).
T1 construct: GST; purchased ProQinase GmbH, Freiburg; host or cells: baculovirus-infected Sf9 insect cells
The test can be described thus: CDK2/CycE kinase assay. The note with it: 0.5 μM ATP, 22° C., 10 min. The method, then: (§1) Recombinant CDK2- and CycE-GST fusion proteins, purified from baculovirus-infected insect cells (Sf9), were purchased from ProQinase GmbH, Freiburg. The histone IIIS used as kinase substrate was purchased from Sigma. CDK2/CycE (50 ng/measurement point) was incubated in the presence of various concentrations of test substances (0 μM, and within the range 0.01-100 μM) in assay buffer [50 mM Tris/HCl pH 8.0, 10 mM MgCl2, 0.1 mM Na ortho-vanadate, 1.0 mM dithiothreitol, 0.5 μM ATP, 10 μg/measurement point histone IIIS, 0.2 μCi/measurement point ^33P-gamma ATP, 0.05% NP40, 1.25% dimethyl sulphoxide] at 22° C. for 10 min. The reaction was stopped by adding EDTA solution (250 mM, pH 8.0, 15 μl/measurement point).
15 μl of each reaction mixture were loaded onto P30 filter strips (from Wallac), and non-incorporated ^33P-ATP was removed by washing the filter strips three times in 0.5% strength phosphoric acid for 10 min each time.
After the filter strips had been dried at 70° C. for 1 hour, the filter strips were covered with scintillator strips (MeltiLex™ A, from Wallac) and baked at 90° C. for 1 hour. The amount of incorporated ^33P (substrate phosphorylation) was determined by scintillation measurement in a gamma radiation counter (Wallac).

For the next test, the target named is T2, Aurora-C (Homo sapiens, UniProt Q9UQB9).
T2 construct: made in house; host or cells: HEK293 (transiently transfected)
T2 sequence (Q9UQB9 1-309): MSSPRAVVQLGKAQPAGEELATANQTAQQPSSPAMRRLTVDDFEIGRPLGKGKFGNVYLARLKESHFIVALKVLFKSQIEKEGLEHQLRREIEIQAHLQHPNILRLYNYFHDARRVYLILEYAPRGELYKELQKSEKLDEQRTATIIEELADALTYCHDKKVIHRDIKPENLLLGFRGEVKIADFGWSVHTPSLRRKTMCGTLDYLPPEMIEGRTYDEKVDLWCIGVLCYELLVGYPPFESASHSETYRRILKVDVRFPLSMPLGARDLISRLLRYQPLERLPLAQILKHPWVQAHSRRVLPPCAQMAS
Briefly: Aurora-C kinase assay. The note with it: 3 μM ATP, 22° C., 90 min. As for the experimental part:
Recombinant Aurora-C protein was expressed in transiently transfected HEK293 cells and then purified. The kinase substrate used was the biotinylated peptide having the amino acid sequence biotin-FMRLRRLSTKYRT, which was purchased from Jerini A G in Berlin.
Aurora-C [5 nM in the test mixture, test volume 5 μl] was incubated in the presence of various concentrations of test substances (0 μM and 10 measurement points within the range 0.001-20 μM in duplicate) in assay buffer [25 mM HEPES pH 7.4, 0.5 mM MnCl2, 0.1 mM Na ortho-vanadate, 2.0 mM dithiothreitol, 0.05% bovine serum albumin (BSA), 0.01% Triton X-100, 3 μM adenosine trisphosphate (ATP), 0.67 nCi/μl gama-P33-ATP, 2.0 μM substrate peptide biotin-FMRLRRLSTKYRT, 1.0% dimethyl sulphoxide] at 22° C. for 90 min. The reaction was stopped by adding 12.5 μl of an EDTA/detection solution [16 mM EDTA, 40 mM ATP, 0.08% Triton X-100, 4 mg/ml PVT streptavidin SPA beads (from Amersham)]. After incubation for 10 minutes, the SPA beads were pelleted by centrifugation at 1000×G for 10 minutes. Measurement took place in a PerkinElmer Topcount scintillation counter. The measured data were normalized to 0% inhibition (enzyme reaction without inhibitor) and 100% inhibition (enzyme reaction in the presence of 0.1 μM staurosporine (from Sigma)). The IC50 values were determined by means of a 4-parameter fit using the company's own software.

Another test has as its target T3, CDK1/CycB (Homo sapiens, UniProt P06493).
T3 construct: GST; purchased ProQinase GmbH, Freiburg; host or cells: baculovirus-infected Sf9 insect cells
The test can be described thus: CDK1/CycB kinase assay. The note with it: 0.5 μM ATP, 22° C., 10 min. As for the experimental part:
as §1, with “Recombinant CDK1-” for “Recombinant CDK2-”, “and CycB-GST” for “and CycE-GST”, “substrate can be” for “substrate was”, “Sigma. CDK1/CycB (200” for “Sigma. CDK2/CycE (50”, “point 33P-gamma” for “point ^33P-gamma”
15 μl of each reaction mixture were loaded onto P30 filter strips (from Wallac), and non-incorporated 33P-ATP was removed by washing the filter strips three times in 0.5% strength phosphoric acid for 10 min each time. After the filter strips had been dried at 70° C. for 1 hour, the filter strips were covered with scintillator strips (MeltiLex™ A, from Wallac) and baked at 90° C. for 1 hour. The amount of incorporated 33P (substrate phosphorylation) was determined by scintillation measurement in a gamma radiation counter (Wallac).

T3 sequence (P06493 whole entry): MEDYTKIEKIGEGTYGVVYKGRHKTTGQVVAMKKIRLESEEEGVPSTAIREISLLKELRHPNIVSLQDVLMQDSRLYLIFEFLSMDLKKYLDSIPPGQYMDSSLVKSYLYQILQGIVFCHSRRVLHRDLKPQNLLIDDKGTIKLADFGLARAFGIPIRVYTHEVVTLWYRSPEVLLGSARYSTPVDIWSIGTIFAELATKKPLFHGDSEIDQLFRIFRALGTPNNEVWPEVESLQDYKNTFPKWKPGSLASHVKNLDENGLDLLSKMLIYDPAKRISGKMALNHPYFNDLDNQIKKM
T3 sequence (P14635 whole entry partner): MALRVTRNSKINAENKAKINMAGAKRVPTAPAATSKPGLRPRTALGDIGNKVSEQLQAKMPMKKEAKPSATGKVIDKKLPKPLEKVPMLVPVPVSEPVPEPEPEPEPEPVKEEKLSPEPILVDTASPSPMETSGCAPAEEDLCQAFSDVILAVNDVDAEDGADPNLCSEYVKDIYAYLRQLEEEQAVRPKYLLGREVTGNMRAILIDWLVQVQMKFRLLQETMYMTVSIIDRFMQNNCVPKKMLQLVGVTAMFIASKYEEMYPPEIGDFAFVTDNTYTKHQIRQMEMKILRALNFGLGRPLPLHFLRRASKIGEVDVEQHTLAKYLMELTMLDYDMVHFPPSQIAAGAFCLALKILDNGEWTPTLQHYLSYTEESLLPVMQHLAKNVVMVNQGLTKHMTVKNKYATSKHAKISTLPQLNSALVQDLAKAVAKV

In general, IC50 refers to the point on the concentration scale where inhibition reaches its midpoint. High values mean weaker potency, low ones greater potency. `CCOC(=O)N=S(C)(=O)c1ccc2cc1NCCCCNc1nc(ncc1Br)N2` (racemic) [Example 1, (RS)—S-[1^5-Bromo-2,4,9-triaza-1(2,4)-pyrimidina-3(1,3)-benzenacyclononaphan-3^4-yl]-N-(ethoxycarbonyl)-S-methylsulphoximide]: the values for the IC50 against CDK2/CycE, at Aurora-C and at CDK1/CycB were 323 nM, 19 nM and 173 nM, respectively.
Turning to `CCOC(=O)N=S(C)(=O)c1ccc2cc1NCCCCNc1nc(ncc1I)N2` (racemic) [Example 4, (RS)—N-(Ethoxycarbonyl)-S-[1^5-iodo-2,4,9-triaza-1(2,4)-pyrimidina-3(1,3)-benzenacyclononaphan-3^4-yl]-S-methylsulphoximide], the IC50 against CDK2/CycE amounted to 319 nM; on Aurora-C, 24 nM; at CDK1/CycB it was 118 nM.
In the case of `C[Si](C)(C)CCS(=O)(=O)N=S(C)(=O)c1ccc2cc1NCCCCNc1nc(ncc1Br)N2` (racemic) [Example 5, (RS)—S-[1^5-Bromo-2,4,9-triaza-1(2,4)-pyrimidina-3(1,3)-benzenacyclononaphan-3^4-yl]-S-methyl-N-[2-(trimethylsilyl)ethylsulphonyl]sulphoximide], the IC50 at CDK2/CycE is greater than 1000 nM; against Aurora-C, 88 nM; on CDK1/CycB, greater than 1000 nM.
As to `CCNC(=O)N=S(C)(=O)c1ccc2cc1NCCCCNc1nc(ncc1Br)N2` (racemic) [Example 6, (RS)—S-[1^5-Bromo-2,4,9-triaza-1(2,4)-pyrimidina-3(1,3)-benzenacyclononaphan-3^4-yl]-N-(ethylcarbamoyl)-S-methylsulphoximide], the half-maximal inhibitory concentration (IC50) worked out at 71 nM against CDK2/CycE, 19 nM against Aurora-C and 70 nM against CDK1/CycB.
In the same order, the values of `CCCS(=O)(=O)N=S(C)(=O)c1ccc2cc1NCCCCNc1nc(ncc1Br)N2` (racemic) [Example 7, (RS)—S-[1^5-Bromo-2,4,9-triaza-1(2,4)-pyrimidina-3(1,3)-benzenacyclononaphan-3^4-yl]-S-methyl-N-(propylsulphonyl)sulphoximide] are greater than 1000 nM, 34 nM and 452 nM.
In the same order, the values of `CCCOC(=O)N=S(C)(=O)c1ccc2cc1OCCCCNc1nc(ncc1Br)N2` (racemic) [Example 8, (RS)—S-[1^5-Bromo-4-oxa-2,9-diaza-1(2,4)-pyrimidina-3(1,3)-benzenacyclononaphan-3^4-yl]-S-methyl-N-(propoxycarbonyl)sulphoximide] are greater than 1000 nM, 283 nM and 438 nM.
Turning to `C[Si](C)(C)CCS(=O)(=O)N=S(C)(=O)c1ccc2cc1OCCCCNc1nc(ncc1Br)N2` (racemic) [Example 9, (RS)—S-[1^5-Bromo-4-oxa-2,9-diaza-1(2,4)-pyrimidina-3(1,3)-benzenacyclononaphan-3^4-yl]-S-methyl-N-[2-(trimethylsilyl)ethylsulphonyl]sulphoximide], the half-inhibitory concentration (IC50) is greater than 1000 nM on CDK2/CycE, 95 nM against Aurora-C and greater than 1000 nM against CDK1/CycB.
In the case of `CCOC(=O)N=S(C)(=O)c1ccc2cc1NCCCCNc1nc(ncc1Br)N2` (single isomer, unassigned) [Example 2], the values for the half-inhibitory concentration (IC50) at CDK2/CycE, at Aurora-C and against CDK1/CycB were 229 nM, 13 nM and 104 nM, respectively.
In the same order, the values of `CCOC(=O)N=S(C)(=O)c1ccc2cc1NCCCCNc1nc(ncc1Br)N2` (single isomer, unassigned) [Example 3] are 990 nM, 69 nM and 210 nM.

For the origin of these results see patent US20070191393A1, “Macrocyclic anilinopyrimidines with substituted sulphoximine as selective inhibitors of cell cycle kinases” (priority 2006, published 2007).
